The values that follow come from PubChem BioAssay (NCI).

Holding throughout (assay): NCI tumour cell line growth inhibition, 48 h
For test [1], the system named is A549 NSCLC.
The subject of test [2] is HCT-15 colon.
Test [3] has as its system IGROV1 ovarian.
Test [4] has as its system LOX IMVI melanoma.
In test [5] the test system is MDA-MB-231 breast.
Test [6] has as its system OVCAR-4 ovarian.
Test [7] deals with SN12C renal.
The test system of test [8] is SNB-19 CNS.
For test [9], the system named is UACC-257 melanoma.
The subject of test [10] is UO-31 renal.

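Tested at 5 concentrations; 48 h exposure; 96-well plates; endpoints linearly interpolated, else capped at highest concentration. The concentration for 50% growth inhibition is given as GI50. TGI: total growth inhibition.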

Regarding `CC(=O)C1=C(O)C=C2Oc3c(C(=O)/C=C/c4c(Cl)cccc4Cl)c(O)c(C)c(O)c3[C@]2(C)C1=O`, the GI50 is 1.58 µM in test [1]; 0.668 µM in test [2]; 1.56 µM in test [3]; 1.13 µM in test [4]; 1.3 µM in test [5]; 3.19 µM in test [6]. The GI50 in [7] was 0.527 µM; in test [8] it was 1.08 µM; in [9], 2.01 µM; in test [10] it was 1.92 µM. Besides, the TGI was found to be 5.53 µM in test [1]; 2.94 µM in test [2]; 9.37 µM in [3]; 3.64 µM in test [4]; 5.72 µM in [5]; 11.3 µM in test [6]. Moreover, the TGI in [7] stood at 1.76 µM; in test [8], 5.93 µM; in test [9] it was 6.82 µM; in [10], 7.59 µM.
Regarding `S=C(Nc1ccc(-c2nc3ccccc3[nH]2)cc1)Nc1ccc(-c2nc3ccccc3[nH]2)cc1`, the GI50 in test [1] is greater than 100 µM; in test [2], 61.1 µM; in test [3], 64.1 µM; in [4] it was greater than 100 µM; in test [5] it was 41.8 µM; in test [6], greater than 100 µM. Moreover, the GI50 in test [7] is 47.7 µM; in test [8], greater than 100 µM; in [9], greater than 100 µM; in test [10] it was 31.7 µM. The TGI in test [1], in [2], in [3], in [4], in test [5] and in test [6] was greater than 100 µM throughout. The TGI in test [7], in test [8], in test [9] and in test [10] was greater than 100 µM each time.
Consider `Oc1ccc(C(c2ccc(O)cc2)c2ccc(O)cc2)cc1`, for which the TGI in test [1] is greater than 100 µM; in test [2], 55.3 µM; in [3] it was 35.2 µM; in test [4], 38.4 µM; in [5], 41.8 µM; in test [6] it was 29.1 µM. Moreover, the TGI worked out at 43.9 µM in test [7], 66.1 µM in test [8], 52.4 µM in [9] and 44.6 µM in test [10].
In the case of `NCCCCCCCn1c2c(c3ccccc3c1=O)C(=O)c1ccccc1-2`, the GI50 in test [1] is 3.27 µM; in [2] it was 1.53 µM; in test [3], 1.43 µM; in test [4] it was 1.33 µM; in [5], 1.85 µM; in [6] it was 2.34 µM. Also, the GI50 was 1.94 µM in test [7], 1.86 µM in [8], 2.19 µM in test [9] and 1.29 µM in test [10]. In addition, the TGI in test [1] turned out to be 18.3 µM; in test [2], 5.2 µM; in test [3] it was 3.58 µM; in test [4], 2.76 µM; in [5] it was 3.79 µM; in test [6], 6.58 µM. The TGI in [7] turned out to be 5.84 µM; in test [8] it was 4.82 µM; in test [9], 4.09 µM; in [10], 2.73 µM.
